Experimental data from patent publication US20090233926A1, “2-BENZIMIDAZOLYL-6-MORPHOLINO-4-PIPERIDIN-4-YLPYRIMIDINE DERIVATIVES AS PI3K AND MTOR INHIBITORS FOR THE TREATMENT OF PROLIFERATIVE DISORDERS” (AstraZeneca, priority 2006, published 2009).

Experiments:
[1] = target: T1, p110α Type Ia human PI3K (Homo sapiens, UniProt P42336); experiment: In vitro PI3K enzyme assay (AlphaScreen), Test (a); assay type: biochemical; details: read-out: IC50 versus p110α Type Ia human PI3K
T1 construct: full length DNA of each of the p110α, p110β and p110δ Type Ia human PI3K p110 isoforms; 6-His; made in house; Grp1 PH domain in E. coli
T1 sequence (P42336 whole entry, the tested form may be a part, canonical isoform): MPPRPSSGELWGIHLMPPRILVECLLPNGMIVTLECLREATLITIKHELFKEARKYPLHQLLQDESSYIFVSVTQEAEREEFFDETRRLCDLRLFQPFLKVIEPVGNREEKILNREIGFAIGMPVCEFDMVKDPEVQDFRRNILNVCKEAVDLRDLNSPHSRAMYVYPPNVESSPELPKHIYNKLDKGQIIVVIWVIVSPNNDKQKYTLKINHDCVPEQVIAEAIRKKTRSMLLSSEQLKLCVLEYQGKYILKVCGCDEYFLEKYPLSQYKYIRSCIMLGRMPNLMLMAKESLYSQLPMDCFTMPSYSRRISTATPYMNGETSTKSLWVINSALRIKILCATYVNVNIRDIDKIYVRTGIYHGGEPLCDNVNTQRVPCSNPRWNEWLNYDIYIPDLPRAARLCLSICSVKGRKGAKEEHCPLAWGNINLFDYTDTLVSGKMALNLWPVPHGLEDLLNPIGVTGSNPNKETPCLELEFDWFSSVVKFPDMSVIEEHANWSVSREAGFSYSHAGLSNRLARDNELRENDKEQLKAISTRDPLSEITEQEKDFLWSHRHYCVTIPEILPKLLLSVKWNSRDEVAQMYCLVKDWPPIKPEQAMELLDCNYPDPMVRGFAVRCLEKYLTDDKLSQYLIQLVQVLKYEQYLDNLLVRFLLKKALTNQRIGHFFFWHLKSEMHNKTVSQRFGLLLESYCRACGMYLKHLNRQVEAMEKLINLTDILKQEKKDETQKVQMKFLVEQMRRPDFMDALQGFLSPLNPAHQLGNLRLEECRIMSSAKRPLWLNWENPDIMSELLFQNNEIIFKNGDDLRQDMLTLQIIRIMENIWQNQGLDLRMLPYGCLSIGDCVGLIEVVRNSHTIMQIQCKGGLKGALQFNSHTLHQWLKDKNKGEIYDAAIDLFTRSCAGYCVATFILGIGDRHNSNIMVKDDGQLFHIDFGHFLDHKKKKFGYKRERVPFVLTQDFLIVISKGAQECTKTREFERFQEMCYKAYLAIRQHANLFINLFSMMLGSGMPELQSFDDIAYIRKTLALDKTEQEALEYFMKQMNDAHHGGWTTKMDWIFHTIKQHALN
T1 sequence (P27986 whole entry partner, the tested form may be a part, canonical isoform): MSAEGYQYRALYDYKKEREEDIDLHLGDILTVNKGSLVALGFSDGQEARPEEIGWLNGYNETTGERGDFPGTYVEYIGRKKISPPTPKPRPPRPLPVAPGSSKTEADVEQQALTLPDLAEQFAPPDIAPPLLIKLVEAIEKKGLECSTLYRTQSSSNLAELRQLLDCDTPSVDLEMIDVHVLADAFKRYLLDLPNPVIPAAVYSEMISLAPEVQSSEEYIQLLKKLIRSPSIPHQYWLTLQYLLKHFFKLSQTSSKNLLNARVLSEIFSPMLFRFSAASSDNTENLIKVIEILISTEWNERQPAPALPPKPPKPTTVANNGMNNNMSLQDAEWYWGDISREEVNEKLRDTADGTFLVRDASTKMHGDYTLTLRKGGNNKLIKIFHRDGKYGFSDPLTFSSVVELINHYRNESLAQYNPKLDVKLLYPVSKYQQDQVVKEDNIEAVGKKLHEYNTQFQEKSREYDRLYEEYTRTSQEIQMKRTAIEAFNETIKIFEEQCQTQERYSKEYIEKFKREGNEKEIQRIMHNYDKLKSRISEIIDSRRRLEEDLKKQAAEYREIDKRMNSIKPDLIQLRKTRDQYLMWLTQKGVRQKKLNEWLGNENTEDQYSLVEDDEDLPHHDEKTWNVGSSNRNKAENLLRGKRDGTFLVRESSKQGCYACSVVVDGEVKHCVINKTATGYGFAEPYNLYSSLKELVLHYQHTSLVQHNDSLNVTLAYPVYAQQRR
Description: The assay used AlphaScreen technology (Gray et al., Analytical Biochemistry, 2003, 313: 234-245) to determine the ability of test compounds to inhibit phosphorylation by recombinant Type I PI3K enzymes of the lipid PI(4,5)P2.
DNA fragments encoding human PI3K catalytic and regulatory subunits were isolated from cDNA libraries using standard molecular biology and PCR cloning techniques. The selected DNA fragments were used to generate baculovirus expression vectors. In particular, full length DNA of each of the p110α, p110β and p110δ Type Ia human PI3K p110 isoforms (EMBL Accession Nos. HSU79143, S67334, Y10055 for p110α, p110β and p110δ respectively) were sub-cloned into a pDEST10 vector (Invitrogen Limited, Fountain Drive, Paisley, UK). The vector is a Gateway-adapted version of Fastbac 1 containing a 6-His epitope tag. […]
Biotinylated-DiC8-PI(3,4,5)P3 (50 nM; Cell Signals Inc., Catalogue No. 107), recombinant purified GST-Grp1 PH protein (2.5 nM) and AlphaScreen Anti-GST donor and acceptor beads (100 ng; Packard Bioscience Limited, Station Road, Pangbourne, Berkshire, UK, Catalogue No. 6760603M) were added and the assay plates were left for about 5 to 20 hours at room temperature in the dark. The resultant signals arising from laser light excitation at 680 nm were read using a Packard AlphaQuest instrument. […]

[2] = tested on: phosphorylation of Serine 473 in Akt; experiment: In vitro phospho-Ser473 Akt assay in MDA-MB-468 cells, Test (c); assay type: cell-based; details: Homo sapiens, read-out: IC50, inhibition of phosphorylation of Serine 473 in Akt
Description: This assay determines the ability of test compounds to inhibit phosphorylation of Serine 473 in Akt as assessed using Acumen Explorer technology (TTP LabTech Limited, Royston, Herts, SG8 6EE, UK), a plate reader that can be used to rapidly quantitate features of images generated by laser-scanning.
A MDA-MB-468 human breast adenocarcinoma cell line (LGC Promochem, Teddington, Middlesex, UK, Catalogue No. HTB-132) was routinely maintained at 37° C. with 5% CO2 up to a confluency of 70-90% in DMEM containing 10% FCS and 1% L-glutamine.
For the assay, the cells were detached from the culture flask using ‘Accutase’ (Innovative Cell Technologies Inc., San Diego, Calif., USA; Catalogue No. AT104) using standard tissue culture methods and resuspended in media to give 5.5×10^4 cells per ml. Aliquots (90 μl) were seeded into each of the inner 60 wells of a black ‘Costar’ 96-well plate (Corning Inc., NY, USA; Catalogue No. 3904) to give a density of ˜5000 cells per well. Aliquots (90 μl) of culture media were placed in the outer wells to prevent edge effects. [An alternative cell handling procedure involved the maintenance of the cells in a ‘SelecT’ robotic device (The Automation Partnership, Royston, Herts SG8 5WY, UK). Cells were resuspended in media to give 5×10^4 cells per ml. Aliquots (100 μl) were seeded into the wells of a black ‘Costar’ 96-well plate.] […]

Row | IC50 [1] [nM] | IC50 [2] [nM] | Compound
1 | ~100 | ~100 | NCC(=O)N1CC=C(c2cc(N3CCOCC3)nc(-n3c(C(F)F)nc4ccccc43)n2)CC1 [Example 1, 2-(2-difluoromethylbenzimidazol-1-yl)-4-(N-glycyl-1,2,3,6-tetrahydropyridin-4-yl)-6-morpholinopyrimidine]
2 | ~300 | ~100 | NCC(=O)N1CCC(c2cc(N3CCOCC3)nc(-n3c(C(F)F)nc4ccccc43)n2)CC1 [Example 2, 2-(2-difluoromethylbenzimidazol-1-yl)-4-(N-glycylpiperidin-4-yl)-6-morpholinopyrimidine]
